The results in this text go back to ChEMBL document CHEMBL1201862, “PubChem BioAssay data set” (2004).

Usually GI50 stands for the concentration at which growth is held to half of that of the control.

Structures are written as SMILES. Structures can show the parent of a compound that is named as a salt.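 Growth conditions: 96-well plates. Treatment: test compound, 48 hours, 5 concentrations. Analysis: linear interpolation between bracketing concentrations; unreached endpoints set to highest concentration. GI50: concentration for 50% inhibition of growth.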 Calls of active or inactive are those of the source. Rule as the data show it: active = GI50 up to about 1.1 µM and inactive = higher.

Some test systems named below: A498; A549; ACHN; CCRF-CEM; DU-145; HOP-92; MDA-N; Malme-3M; NCI-H460; NCI/ADR-RES; OVCAR-4; OVCAR-5; OVCAR-8; PC-3; RXF 393; SF-268; SF-295; SNB-75; UACC-257; UO-31.
Common to all, as to experiment: DTP human tumour cell line panel, 48 h

Consider `Oc1ccc(Cn2c(-c3ccc(O)cc3)nc3ccccc32)cc1`, for which the GI50 with A498, in the assay on A549, in the assay on ACHN, in the assay on CCRF-CEM, in the assay on DU-145 and with HOP-92 was > 100 µM (inactive) throughout. Moreover, the GI50 with MDA-N, in the assay on Malme-3M, in the assay with NCI-H460, in the assay on NCI/ADR-RES, in the assay on OVCAR-4 and with OVCAR-5 was > 100 µM (inactive) throughout. For the same compound, the GI50 in the assay with OVCAR-8, in the assay with PC-3, with RXF 393, with SF-268, in the assay on SF-295 and with SNB-75 was > 100 µM (inactive) in each case. Further, the GI50 in the assay with UACC-257 and in the assay on UO-31 was > 100 µM (inactive) throughout.
With `CC1OC(OC2C(O)COC(OC3C(C)OC(OC4C(OC(=O)[C@]56CCC(C)(C)C[C@@H]5C5=CCC7[C@@]8(C)C[C@H](O)[C@H](OC9OC(CO)C(O)C(O)C9O)[C@@](C)(CO)[C@@H]8CC[C@@]7(C)[C@]5(C)CC6)OCC(O)C4O)C(O)C3OC3OCC(O)(CO)C3O)C2O)C(O)C(O)C1O` (stereo not given in full), the GI50 was 3.97 µM (inactive) in the assay with A498; 4.62 µM (inactive) in the assay with A549; 12.5 µM (inactive) in the assay with ACHN; 18.5 µM (inactive) in the assay on CCRF-CEM; 14.3 µM (inactive) in the assay on DU-145; 26.6 µM (inactive) in the assay on HOP-92. The GI50 was 12.6 µM (inactive) in the assay on MDA-N; 12 µM (inactive) in the assay with Malme-3M; 18.7 µM (inactive) with NCI-H460; 18.8 µM (inactive) in the assay with NCI/ADR-RES; 15.7 µM (inactive) in the assay on OVCAR-4; 8.93 µM (inactive) in the assay on OVCAR-5. Besides, the GI50 with OVCAR-8 is 18.5 µM (inactive); with PC-3 it was 11.9 µM (inactive); with RXF 393, 14.7 µM (inactive); in the assay with SF-268, 10.2 µM (inactive); with SF-295 it was 13.6 µM (inactive); with SNB-75, 21 µM (inactive). In addition, the GI50 is 9.77 µM (inactive) in the assay with UACC-257 and 3.36 µM (inactive) with UO-31.
Regarding `CCCCOCCOCCOC1=C(Cl)C(=O)c2c(O)ccc(O)c2C1=O`, the GI50 in the assay on A498 was 2.36 µM (inactive); in the assay on A549 it was 1.85 µM (inactive); in the assay on ACHN it was 1.59 µM (inactive); in the assay on CCRF-CEM, < 0.01 µM (active); with DU-145, 1.77 µM (inactive); in the assay on HOP-92 it was 0.199 µM (active). Besides, the GI50 with MDA-N is 0.728 µM (active); with Malme-3M, 1.46 µM (inactive); with NCI-H460, 1.85 µM (inactive); with NCI/ADR-RES, 1.97 µM (inactive); in the assay with OVCAR-4 it was 0.359 µM (active); with OVCAR-5 it was 2.52 µM (inactive). The GI50 with OVCAR-8 was 1.37 µM (inactive); with PC-3, 1.62 µM (inactive); in the assay with RXF 393, 0.809 µM (active); in the assay with SF-268, 0.759 µM (active); in the assay with SF-295, 1.73 µM (inactive); with SNB-75, 0.382 µM (active). The GI50 is 0.766 µM (active) with UACC-257 and 1.35 µM (inactive) in the assay with UO-31.
`COc1ccccc1N1C(=O)CC(=O)N(C(=O)CCCCCCCCC(=O)N2C(=O)CC(=O)N(c3ccccc3OC)C2=S)C1=S`: the GI50 is > 100 µM (inactive) with A498; 53.7 µM (inactive) with A549; > 100 µM (inactive) with ACHN; 27.3 µM (inactive) in the assay with CCRF-CEM; > 100 µM (inactive) in the assay on DU-145; 59.2 µM (inactive) with HOP-92. For the same compound, the GI50 was 67.3 µM (inactive) in the assay on MDA-N; > 100 µM (inactive) in the assay with Malme-3M; 83.9 µM (inactive) with NCI-H460; 91.6 µM (inactive) in the assay with NCI/ADR-RES; 73.1 µM (inactive) in the assay with OVCAR-4; > 100 µM (inactive) with OVCAR-5. Besides, the GI50 with OVCAR-8 was 63.2 µM (inactive); in the assay with PC-3 it was 62.5 µM (inactive); in the assay with RXF 393 it was 99.3 µM (inactive); in the assay with SF-268, > 100 µM (inactive); with SF-295, > 100 µM (inactive); in the assay with SNB-75, > 100 µM (inactive). Also, the GI50 was > 100 µM (inactive) in the assay on UACC-257 and 45.9 µM (inactive) in the assay on UO-31.
Regarding `c1csc(-c2nn3c(C45CC6CC(CC(C6)C4)C5)nnc3s2)c1`, the GI50 in the assay with A498, with A549, in the assay with ACHN, in the assay with CCRF-CEM, in the assay with DU-145 and in the assay on HOP-92 was > 100 µM (inactive) in each case. Moreover, the GI50 in the assay with MDA-N, in the assay with Malme-3M, in the assay on NCI-H460, in the assay on NCI/ADR-RES, with OVCAR-4 and with OVCAR-5 was > 100 µM (inactive) each time. Besides, the GI50 in the assay with OVCAR-8, in the assay with PC-3, with RXF 393, with SF-268, with SF-295 and in the assay with SNB-75 was > 100 µM (inactive) throughout. The GI50 in the assay on UACC-257 was > 100 µM (inactive); in the assay with UO-31 it was 47.5 µM (inactive).
Regarding `O=C1C(Br)=CC2(C=C1Br)CCNC1=C2C2=NCCc3c[nH]c(c32)C1=O`, the GI50 was 1.23 µM (inactive) with A498; 0.951 µM (active) in the assay on A549; 0.0962 µM (active) in the assay on ACHN; 0.0198 µM (active) with CCRF-CEM; 0.811 µM (active) in the assay with DU-145; 0.0817 µM (active) with HOP-92. Moreover, the concentration for 50% growth inhibition (GI50) was 0.102 µM (active) with MDA-N; 0.0415 µM (active) in the assay with Malme-3M; 0.548 µM (active) in the assay on NCI-H460; 0.164 µM (active) in the assay with NCI/ADR-RES; 0.0794 µM (active) in the assay on OVCAR-4; 0.69 µM (active) in the assay with OVCAR-5. For the same compound, the GI50 with OVCAR-8 is 0.0736 µM (active); in the assay with PC-3, 0.307 µM (active); in the assay with RXF 393, 0.0681 µM (active); in the assay on SF-268, 0.347 µM (active); in the assay with SF-295 it was 1.25 µM (inactive); with SNB-75, 0.973 µM (active). In addition, the 50% growth inhibitory concentration (GI50) with UACC-257 was 0.101 µM (active); in the assay on UO-31, 0.308 µM (active).
Take `C=CCC1NCCC2=C1C(S(=O)(=O)c1ccc(C)cc1)c1ccccc12` (stereo not given): the GI50 was 19 µM (inactive) with A498; 15.1 µM (inactive) in the assay with A549; 7.16 µM (inactive) in the assay on ACHN; 7.96 µM (inactive) in the assay on CCRF-CEM; 11.9 µM (inactive) in the assay on DU-145; 9.95 µM (inactive) with HOP-92. For the same compound, the GI50 with MDA-N was 6.9 µM (inactive); in the assay with Malme-3M it was 11.2 µM (inactive); in the assay with NCI-H460, 11.7 µM (inactive); with NCI/ADR-RES it was 12.6 µM (inactive); with OVCAR-4 it was 12.1 µM (inactive); in the assay on OVCAR-5 it was 18.1 µM (inactive). In addition, the GI50 with OVCAR-8 is 14.3 µM (inactive); in the assay with PC-3 it was 10.4 µM (inactive); with RXF 393, 5.66 µM (inactive); in the assay with SF-268 it was 14.9 µM (inactive); with SF-295, 13.7 µM (inactive); in the assay with SNB-75, 5.64 µM (inactive). For the same compound, the values for the GI50 with UACC-257 and in the assay on UO-31 were 20.2 µM (inactive) and 7.67 µM (inactive), respectively.
For the compound `C/C(=N\NS(=O)(=O)c1ccc(C)cc1)C(CN(C)C)C(c1ccccc1)c1c(O)c2ccccc2oc1=O` (stereo not given), the GI50 was > 100 µM (inactive) with A498; > 100 µM (inactive) in the assay with A549; > 100 µM (inactive) with ACHN; > 100 µM (inactive) with CCRF-CEM; > 100 µM (inactive) in the assay on DU-145; 60 µM (inactive) with HOP-92. The GI50 in the assay on MDA-N, in the assay on Malme-3M, in the assay with NCI-H460, in the assay on NCI/ADR-RES, with OVCAR-4 and with OVCAR-5 was > 100 µM (inactive) throughout. Also, the GI50 with OVCAR-8 is > 100 µM (inactive); in the assay with PC-3, > 100 µM (inactive); in the assay on RXF 393, 55.2 µM (inactive); in the assay with SF-268 it was > 100 µM (inactive); in the assay with SF-295 it was > 100 µM (inactive); with SNB-75 it was > 51.9 µM (inactive). Besides, the GI50 in the assay on UACC-257 is > 100 µM (inactive); with UO-31, > 81.7 µM (inactive).
Regarding `O=S1(=O)OCc2ccccc21`, the GI50 in the assay on A498 is 37.5 µM (inactive); with A549, > 100 µM (inactive); in the assay with ACHN, 61.5 µM (inactive); in the assay on CCRF-CEM, > 100 µM (inactive); with DU-145, > 100 µM (inactive); with HOP-92, > 100 µM (inactive). The GI50 with MDA-N was > 100 µM (inactive); in the assay with Malme-3M, > 100 µM (inactive); in the assay with NCI-H460, 34.4 µM (inactive); in the assay with NCI/ADR-RES it was > 100 µM (inactive); with OVCAR-4 it was 51.1 µM (inactive); with OVCAR-5, > 100 µM (inactive). The GI50 in the assay with OVCAR-8 was > 100 µM (inactive); in the assay with PC-3 it was > 100 µM (inactive); in the assay with RXF 393, > 100 µM (inactive); in the assay with SF-268, > 100 µM (inactive); with SF-295 it was > 100 µM (inactive); in the assay on SNB-75, 42.8 µM (inactive). The GI50 in the assay with UACC-257 and in the assay on UO-31 was > 100 µM (inactive) in each case.
Turning to `CC(=O)N(C)c1ccc(Nc2cc(C)nc3ccc4nc[nH]c4c23)cc1` [ACODAZOLE HYDROCHLORIDE], the GI50 is 10.4 µM (inactive) in the assay with A498; 7.59 µM (inactive) with A549; 4.5 µM (inactive) in the assay on ACHN; 3.01 µM (inactive) in the assay on CCRF-CEM; 5.81 µM (inactive) with DU-145; 2.55 µM (inactive) in the assay on HOP-92. Moreover, the GI50 is 10.5 µM (inactive) in the assay with MDA-N; 7.64 µM (inactive) in the assay with Malme-3M; 2.59 µM (inactive) in the assay with NCI-H460; 156 µM (inactive) in the assay with NCI/ADR-RES; 11.7 µM (inactive) in the assay with OVCAR-4; 12.1 µM (inactive) in the assay on OVCAR-5. Moreover, the GI50 in the assay with OVCAR-8 is 5.97 µM (inactive); in the assay with PC-3, 5.09 µM (inactive); with RXF 393, 9.25 µM (inactive); in the assay with SF-268, 8.11 µM (inactive); in the assay on SF-295, 14.1 µM (inactive); in the assay on SNB-75 it was 9.33 µM (inactive). Moreover, the GI50 with UACC-257 is 12.7 µM (inactive); in the assay on UO-31, 12.2 µM (inactive).
